Measurements published in ChEMBL document CHEMBL3351494, “Selenium analogues of raloxifene as promising antiproliferative agents in treatment of breast cancer” (Eur J Med Chem, 2014).
Active and inactive are the calls of the source. No cut-off for these calls is given here.

Legend:
[1] = Cytotoxicity against mouse NIH/3T3 cells after 72 hrs by MTT assay; assay type: cell-based; conditions: NIH3T3, 72 h
[2] = Cytotoxicity against mouse CCL8 cells after 72 hrs by MTT assay; assay type: functional, cell-based; conditions: CCL8, 72 h
[3] = test system: MG-22A; assay: Cytotoxicity against mouse MG-22A cells after 72 hrs by MTT assay; assay type: functional, cell-based
[4] = test system: MCF7; assay: Cytotoxicity against human MCF7 cells after 72 hrs by MTT assay; assay type: functional, cell-based; conditions: MCF7, 72 h
[5] = Acute toxicity in po dosed rat; assay type: organism-based; conditions: in vivo
[6] = Cytotoxicity against human HT1080 cells after 72 hrs by MTT assay; assay type: functional, cell-based; conditions: HT-1080, 72 h
[7] = Cytotoxicity against human MDA-MB-435S cells after 72 hrs by MTT assay; assay type: functional, cell-based
[8] = Cytotoxicity against human MES-SA cells after 72 hrs by MTT assay; assay type: functional, cell-based
[9] = test system: 4T1; assay: Antitumor activity against mouse 4T1 cells allografted in BALB/c mouse assessed as tumor growth inhibition at 15 mg/kg, ip administered 24 hrs post tumor implantation on even days of total 9 doses for 18 days measured after 18 days relative to control; assay type: functional
[10] = test system: CCRF S-180; assay: Antitumor activity against mouse S180 cells allografted in ICR mouse assessed as tumor growth inhibition at 15 mg/kg, ip qd administered 24 hrs post tumor implantation for 9 days measured after 9 days relative to control; assay type: functional, organism-based; set-up: dose 15 mg/kg
[11] = test system: 4T1; assay: Antitumor activity against mouse 4T1 cells allografted in BALB/c mouse assessed as tumor growth inhibition at 1.8 mg/kg, ip administered 24 hrs post tumor implantation on even days of total 9 doses for 18 days relative to control; assay type: functional; conditions: 4T1, ip, route intraperitoneal, read-out: TGI
[12] = test system: Mus musculus; assay: Toxicity in mouse 4T1 cells allografted BALB/c mouse assessed as body weight loss at 15 mg/kg, ip administered 24 hrs post tumor implantation on even days of total 9 doses for 18 days measured after 18 days relative to control; assay type: organism-based; set-up: dose 15 mg/kg, route intraperitoneal; conditions: in vivo, 432 h

| SMILES | IC50 [1] [µM] | IC50 [2] [µM] | IC50 [3] [µM] | IC50 [4] [µM] | LD50 [5] [mg/kg] | IC50 [6] [µM] | IC50 [7] [µM] | IC50 [8] [µM] | TGI [9] | TGI [10] | inhibition in vivo at 1.8 mg/kg [11] [%] | Activity [12] | inhibition in vivo at 15 mg/kg ([9]; 4T1, ip, route intraperitoneal, read-out: TGI) [%] |
| --- | --- | --- | --- | --- | --- | --- | --- | --- | --- | --- | --- | --- | --- |
| CN(C)CCOc1ccc(C(=O)c2c(-c3ccc(F)cc3)[se]c3cc(F)ccc23)cc1.Cl | 11 | 3.8 | 3.8 | 6.7 | 313 | 4.8 | 3.5 | 3.8 | – | – | – | – | – |
| O=C(c1ccc(OCCN2CCCCC2)cc1)c1c(-c2ccc(O)cc2)sc2cc(O)ccc12 [RALOXIFENE] | 7.8 | 27 | 6.8 | 50 | 255 | 34 | 26 | 37 | inactive | inactive | 70 | – | – |
| Cl.O=C(c1ccc(OCCN2CCCCC2)cc1)c1c(-c2ccc(F)cc2)[se]c2cc(F)ccc12 | 9 | 3.6 | 4.5 | 11.6 | 280 | 4.5 | 3.6 | 4.5 | – | – | – | – | – |
| Cl.O=C(c1ccc(OCCN2CCCCC2)cc1)c1[se]c2cc(O)ccc2c1-c1ccc(O)cc1 | 28 | 3.6 | 3.6 | 25 | 615 | 30 | 32 | 14.3 | – | – | – | – | – |
| Cl.O=C(c1ccc(OCCN2CCCCCC2)cc1)c1c(-c2ccc(O)cc2)[se]c2cc(O)ccc12 | 14 | 36 | 5.2 | 40 | 400 | 27 | 14 | 39 | – | – | – | – | – |
| Cl.O=C(c1ccc(OCCN2CCCC2)cc1)c1c(-c2ccc(O)cc2)[se]c2cc(O)ccc12 | 42 | 34 | 21 | 33 | 543 | 36 | 43 | 32 | – | – | – | – | – |
| Cl.O=C(c1ccc(OCCN2CCCCC2)cc1)c1c(-c2ccc(O)cc2)[se]c2cc(O)ccc12 | 22 | 5.4 | 5.4 | 35 | 446 | 12 | 3.6 | 56 | – | inactive | 4 | Non-toxic | 30 |
| CCCCCCCCN(C)CCOc1ccc(C(=O)c2c(-c3ccc(O)cc3)[se]c3cc(O)ccc23)cc1.Cl | 8 | 4.7 | 3.2 | 4.7 | 308 | 4.7 | 4 | 4 | – | – | – | – | – |
| C[N+](C)(C)CCOc1ccc(C(=O)c2c(-c3ccc(O)cc3)[se]c3cc(O)ccc23)cc1.[Cl-] | 452 | – | 124 | – | 1540 | 131 | – | – | – | – | – | – | – |
| CN(C)CCOc1ccc(C(=O)c2c(-c3ccc(O)cc3)[se]c3cc(O)ccc23)cc1.Cl | 20 | 28 | 9 | 22 | 413 | 48 | 26 | 51 | – | – | – | – | – |
| Cl.O=C(c1ccc(OCCN2CCOCC2)cc1)c1c(-c2ccc(F)cc2)[se]c2cc(F)ccc12 | 363 | 25 | 21 | 121 | 1410 | 27 | 168 | 53 | – | – | – | – | – |
| CN(C)CCOc1ccc(C(=O)c2[se]c3cc(O)ccc3c2-c2ccc(O)cc2)cc1.Cl | 31 | 3.8 | 3.9 | 17.3 | 674 | 5.8 | 3.8 | 5.8 | – | – | – | – | – |
| Cl.O=C(c1ccc(OCCN2CCOCC2)cc1)c1[se]c2cc(O)ccc2c1-c1ccc(O)cc1 | 16 | 3.4 | 5.2 | 31 | 465 | 8.6 | 15.5 | 6.9 | – | – | – | – | – |
| Cl.O=C(c1ccc(OCCN2CCOCC2)cc1)c1c(-c2ccc(O)cc2)[se]c2cc(O)ccc12 | 36 | 9.8 | 8 | 38 | 553 | 46 | 32 | 61 | – | – | – | – | – |
| CNCCOc1ccc(C(=O)c2c(-c3ccc(O)cc3)[se]c3cc(O)ccc23)cc1.Cl | 32 | 46 | 6 | 12 | 452 | 6 | 17 | 42 | – | – | – | – | – |
| O=[Se]([O-])[O-].[Na+].[Na+] [SODIUM SELENITE] | 23 | 8 | 64 | 17 | 105 | 1.7 | 12 | 29 | – | – | – | – | – |
